Assay results as given in US11253634B2, “Cationic steroidal antibiotic compositions for the treatment of dermal tissue” (BRIGHAM YOUNG UNIVERSITY, priority 2016, dated 2022).
Values after ≈ are worked out from the molar mass of the structure shown. Each block holds one compound with its values, some of them ahead of it.

Key:
Pseudomonas aeruginosa = assay: MIC/MBC against mixed-species biofilms: P. aeruginosa; format: cell-based; settings: mixed-species biofilms grown 22 hours, 20 hours of treatment
Experimental: (§1) Several CSA compounds were tested against Pseudomonas aeruginosa and Staphylococcus aureus mixed-species biofilms grown for an initial 22 hours and subjected to 20 hours of treatment.

Staphylococcus aureus = assay: MIC/MBC against mixed-species biofilms: S. aureus; format: cell-based; settings: mixed-species biofilms grown 22 hours, 20 hours of treatment
Experimental: as §1

IL-6 = assay: Kidney IL-6 levels in P. aeruginosa pneumonia model; format: in vivo, C57/BL6 mice; settings: 24 hours post-infection
Text: IL-6 is a marker of systemic inflammation. Female C57/BL6 mice were infected in the respiratory tract with a non-lethal dose of P. aeruginosa as a model of pneumonia.

primary human MSC cells = assay: Gene expression (q-PCR, inflammation-related mRNA panel) after CSA treatment of primary cells; format: cell-based; settings: 8 hours treatment, CSA-13 at 5.0 μM; for Fold Regulation, IL1A: gene IL1A (Interleukin-1 alpha); for Fold Regulation, IL1A / Fold Regulation, IL1B / Fold Regulation, IRAK2 / Fold Regulation, NFKBIA / Fold Regulation, TLR2 / Fold Regulation, TLR4 / Fold Regulation, TLR6 / Fold Regulation, TLR8 / Fold Regulation, TLR9 / Fold Regulation, TNF / Fold Regulation, TNFRSF1A: q-PCR; for Fold Regulation, IL1B: gene IL1B (Interleukin-1 beta); for Fold Regulation, IRAK2: gene IRAK2 (Interleukin-1 receptor-associated kinase 2); for Fold Regulation, NFKB1: gene NFKB1, q-PCR; for Fold Regulation, NFKB2: gene NFKB2, q-PCR; for Fold Regulation, NFKBIA: gene NFKBIA; for Fold Regulation, TLR2: gene TLR2 (Toll-like receptor 2); for Fold Regulation, TLR4: gene TLR4 (Toll-like receptor 4); for Fold Regulation, TLR6: gene TLR6 (Toll-like receptor 6); for Fold Regulation, TLR8: gene TLR8 (Toll-like receptor 8); for Fold Regulation, TLR9: gene TLR9 (Toll-like receptor 9); for Fold Regulation, TNF: gene TNF (Tumor necrosis factor); for Fold Regulation, TNFRSF1A: gene TNFRSF1A
[1] = Solubility of CSA-131 salt in cyanoacrylate; format: physicochemical
Experimental: CSA-131 (bis-DNS salt) was used in this Example. This material is a stable, colorless solid and is insoluble in cyanoacrylate. To ensure uniform distribution of CSA-131 in the cyanoacrylate polymer, the solid was micronized using a jet mill to give an average particle size of 200 nm. The resulting powder was added to cyanoacrylate to give a 5% (w/w) mixture, which was vigorously agitated. No immediate change in viscosity was observed, and the mixture remained non-viscous for more than 15 min.

[2] = test system: 74 clinical isolates (All); assay: Broth microdilution susceptibility testing, all clinical isolates; format: cell-based; settings: All (74) isolates; no unit in column head (MIC levels of table in μg/ml)
Experimental: (§2) CSA-131 was tested in vitro against a set of clinical isolates representing bacterial species commonly associated with hospital-acquired infections. Antimicrobial susceptibility testing for 74 clinical isolates was performed.

[3] = test system: Staphylococcus aureus (10); assay: Broth microdilution susceptibility testing, S. aureus isolates; format: cell-based; settings: unit inferred, unit assumed
Experimental: as §2

[4] = test system: Streptococcus Pneumoniae (10); assay: Broth microdilution susceptibility testing, S. pneumoniae isolates; format: cell-based; settings: unit inferred, unit assumed
Experimental: as §2

Haemophilus spp. (10) = assay: Broth microdilution susceptibility testing, Haemophilus spp. isolates; format: cell-based, H. influenza and H. parainfluenzae; settings: unit inferred, unit assumed
Experimental: as §2

Enterobacteriaceae (22) = assay: Broth microdilution susceptibility testing, Enterobacteriaceae isolates; format: cell-based; settings: unit inferred, unit assumed
Experimental: as §2

Non-fermenters (22) = assay: Broth microdilution susceptibility testing, non-fermenter isolates; format: cell-based, A. baumannii species complex, P. aeruginosa, S. maltophilia; settings: unit inferred, unit assumed
Experimental: as §2

SMILES: CC(CCCO)C1CCC2C3C(OCCCN)CC4CC(OCCCN)CCC4(C)C3CC(OCCCN)C12C.Cl.Cl.Cl (centres unmarked) [CSA-8]
- MBC P. aeruginosa (Pseudomonas aeruginosa): 100 µg/mL
- MIC P. aeruginosa (Pseudomonas aeruginosa): 25 µg/mL
- MBC S. aureus (Staphylococcus aureus): 6.25 µg/mL
- MIC S. aureus (Staphylococcus aureus): 3.125 µg/mL

SMILES: CC(O)C1CCC2C3C(OCCCN)CC4CC(OCCCN)CCC4(C)C3CC(OCCCN)C12C.Cl.Cl.Cl (centres unmarked) [CSA-11]
- MBC P. aeruginosa (Pseudomonas aeruginosa): >200 µg/mL
- MIC P. aeruginosa (Pseudomonas aeruginosa): >200 µg/mL
- MBC S. aureus (Staphylococcus aureus): 50 µg/mL
- MIC S. aureus (Staphylococcus aureus): 50 µg/mL

SMILES: CCCCCCCCNCCC[C@@H](C)[C@H]1CC[C@H]2[C@@H]3[C@H](OCCCN)C[C@@H]4C[C@H](OCCCN)CC[C@]4(C)[C@H]3C[C@H](OCCCN)[C@]12C [CSA-13]
- Effect of treatment on kidney IL-6 levels (IL-6): significantly reduced

SMILES: CCCCCCCCOC(=O)CC[C@@H](C)[C@H]1CC[C@H]2[C@@H]3[C@H](OC(=O)CCN)C[C@@H]4C[C@H](OC(=O)CCN)CC[C@]4(C)[C@H]3C[C@H](OC(=O)CCN)[C@]12C [CSA-44]
- Fold Regulation, IL1A (primary human MSC cells): −6.0325 fold
- Fold Regulation, IL1B (primary human MSC cells): −28.5329 fold
- Fold Regulation, IRAK2 (primary human MSC cells): −31.8021 fold
- Fold Regulation, NFKB1 (primary human MSC cells): −3.2891 fold
- Fold Regulation, NFKB2 (primary human MSC cells): −2.2766 fold
- Fold Regulation, NFKBIA (primary human MSC cells): −52.206 fold
- Fold Regulation, TLR2 (primary human MSC cells): −15.7179 fold
- Fold Regulation, TLR4 (primary human MSC cells): −2.977 fold
- Fold Regulation, TLR6 (primary human MSC cells): −2.392 fold
- Fold Regulation, TLR8 (primary human MSC cells): −8.2256 fold
- Fold Regulation, TLR9 (primary human MSC cells): −1.8905 fold
- Fold Regulation, TNF (primary human MSC cells): −25.9588 fold
- Fold Regulation, TNFRSF1A (primary human MSC cells): −2.2461 fold

SMILES: CCCCCCCCCCCCNCCC[C@@H](C)[C@H]1CC[C@H]2[C@@H]3[C@H](OCCCN)C[C@@H]4C[C@H](OCCCN)CC[C@]4(C)[C@H]3C[C@H](OCCCN)[C@]12C.Cl.Cl.Cl.Cl [CSA-131]
- MIC50 [2]: 4
- MIC90 [2]: 8
- MIC50 [3]: 2 µg/mL
- MIC90 [3]: 2 µg/mL
- MIC50 [4]: 4 µg/mL
- MIC90 [4]: 4 µg/mL
- MIC50 (Haemophilus spp. (10)): 8 µg/mL
- MIC90 (Haemophilus spp. (10)): 8 µg/mL
- MIC50 (Enterobacteriaceae (22)): 4 µg/mL
- MIC90 (Enterobacteriaceae (22)): 4 µg/mL
- MIC50 (Non-fermenters (22)): 4 µg/mL
- MIC90 (Non-fermenters (22)): 4 µg/mL

SMILES: CCCCCCCCCCOC(=O)CC[C@@H](C)[C@H]1CC[C@H]2[C@@H]3[C@H](OC(=O)CCN)C[C@@H]4C[C@H](OC(=O)CCN)CC[C@]4(C)[C@H]3C[C@H](OC(=O)CCN)[C@]12C [CSA-144]
- MBC P. aeruginosa (Pseudomonas aeruginosa): 50 µg/mL (≈ 65.6 µM)
- MIC P. aeruginosa (Pseudomonas aeruginosa): 12.5 µg/mL (≈ 16.4 µM)
- MBC S. aureus (Staphylococcus aureus): 3.125 µg/mL (≈ 4.1 µM)
- MIC S. aureus (Staphylococcus aureus): 3.125 µg/mL (≈ 4.1 µM)

SMILES: CCCCCCCCCOC(=O)CC[C@@H](C)[C@H]1CC[C@H]2[C@@H]3[C@H](OC(=O)CCN)C[C@@H]4C[C@H](OC(=O)CCN)CC[C@]4(C)[C@H]3C[C@H](OC(=O)CCN)[C@]12C [CSA-145]
- MBC P. aeruginosa (Pseudomonas aeruginosa): 50 µg/mL (≈ 66.8 µM)
- MIC P. aeruginosa (Pseudomonas aeruginosa): 12.5 µg/mL (≈ 16.7 µM)
- MBC S. aureus (Staphylococcus aureus): 3.125 µg/mL (≈ 4.18 µM)
- MIC S. aureus (Staphylococcus aureus): 3.125 µg/mL (≈ 4.18 µM)

The next lines start with results.

- MIC P. aeruginosa (Pseudomonas aeruginosa): 50 µg/mL
- MIC S. aureus (Staphylococcus aureus): 6.25 µg/mL
SMILES: CC(CCCNCCCNCCCN)C1CCC2C3C(OCCCN)CC4CC(OCCCN)CCC4(C)C3CC(OCCCN)C12C.Cl.Cl.Cl.Cl.Cl.Cl (centres unmarked) [CSA-54]
- MBC P. aeruginosa (Pseudomonas aeruginosa): 100 µg/mL
- MBC S. aureus (Staphylococcus aureus): 25 µg/mL

- MIC P. aeruginosa (Pseudomonas aeruginosa): 6.25 µg/mL
- MIC S. aureus (Staphylococcus aureus): 1.56 µg/mL
SMILES: CCCCCN(CCCCC)CCCC(C)C1CCC2C3C(OCCCN)CC4CC(OCCCN)CCC4(C)C3CC(OCCCN)C12C.Cl.Cl.Cl.Cl (centres unmarked) [CSA-90]
- Fold Regulation, IL1A (primary human MSC cells): −6.96 fold
- Fold Regulation, IL1B (primary human MSC cells): −3.6734 fold
- Fold Regulation, IRAK2 (primary human MSC cells): −52.0069 fold
- Fold Regulation, NFKB1 (primary human MSC cells): −4.718 fold
- Fold Regulation, NFKB2 (primary human MSC cells): −2.5474 fold
- Fold Regulation, NFKBIA (primary human MSC cells): −26.0352 fold
- Fold Regulation, TLR2 (primary human MSC cells): −13.6933 fold
- Fold Regulation, TLR4 (primary human MSC cells): −3.4278 fold
- Fold Regulation, TLR6 (primary human MSC cells): −2.0885 fold
- Fold Regulation, TLR8 (primary human MSC cells): −4.1972 fold
- Fold Regulation, TLR9 (primary human MSC cells): −1.8613 fold
- Fold Regulation, TNF (primary human MSC cells): −4.8514 fold
- Fold Regulation, TNFRSF1A (primary human MSC cells): −7.3196 fold
- MBC P. aeruginosa (Pseudomonas aeruginosa): 6.25 µg/mL
- MBC S. aureus (Staphylococcus aureus): 1.56 µg/mL

- Solubility in cyanoacrylate [1]: insoluble
SMILES: CCCCCCCCCCCCNCCCC(C)C1CCC2C3C(OCCCN)CC4CC(OCCCN)CCC4(C)C3CC(OCCCN)C12C.O=S(=O)(O)c1cccc2c(S(=O)(=O)O)cccc12.O=S(=O)(O)c1cccc2c(S(=O)(=O)O)cccc12 (centres unmarked) [CSA-131 (bis-DNS salt)]

- MIC P. aeruginosa (Pseudomonas aeruginosa): 3.125 µg/mL (≈ 4.18 µM)
- MIC S. aureus (Staphylococcus aureus): 1.56 µg/mL (≈ 2.09 µM)
SMILES: CCCCCCCCCCCCCNCCC[C@@H](C)[C@H]1CC[C@H]2[C@@H]3[C@H](OCCCN)C[C@@H]4C[C@H](OCCCN)CC[C@]4(C)[C@H]3C[C@H](OCCCN)[C@]12C [CSA-138]
- MBC P. aeruginosa (Pseudomonas aeruginosa): 6.25 µg/mL (≈ 8.36 µM)
- MBC S. aureus (Staphylococcus aureus): 3.125 µg/mL (≈ 4.18 µM)
